Reference: patent US11332499B2, “Cyclic peptides and methods of use thereof” (Regents of the University of Minnesota, priority 2018, dated 2022)
Entries after “also recorded” stand apart in the source; their conditions may differ. Bridge positions count the residues as written; N and C are the ends. Square brackets hold non-standard residues; d marks the D form. Dap = NC[C@H](N)C(=O)O

Key:
rats = details: ICV administration into rats; cited from earlier work
MC4R [1] = molecular target: T1, MC4R (Homo sapiens, UniProt P32245); test: AlphaScreen cAMP assay, inverse agonist activity at hMC4R; assay type: cell-based; design: expressed in transfected cells; details: for hMC4R Inverse Agonist, decrease from basal signal / EC50: Table 10; for fold decreased inverse agonist apparent potency relative to AGRP: wildtype hMC4R; for EC50: apparent potency, none = no inverse agonist activity
Description: The apparent potencies were determined from the inflection point of the normalized sigmoidal dose-response curves.
(§1) Briefly, cells 70-90% confluent were dislodged with Versene (Gibco®) at 37° C. and plated 10,000 cells/well in a 384-well plate (Optiplate™) with 10 μL freshly prepared stimulation buffer (1×HBSS, 5 mM HEPES, 0.5 mM IBMX, 0.1% BSA, pH=7.4) with 0.5 μg anti-cAMP acceptor beads per well.
(§2) Following stimulation, streptavidin donor beads (0.5 μg) and biotinylated-cAMP (0.62 μmol) were added to the wells in a subdued light environment with 10 μL lysis buffer (5 mM HEPES, 0.3% Tween-20, 0.1% BSA, pH=7.4) and the plates were incubated in the dark at room temperature for an additional 2 hr.
(§3) The EC50 values represent the mean of duplicate replicates performed in at least three independent experiments. The EC50 estimates and associated standard errors (SEM) were determined by fitting the data to a nonlinear least-squares analysis using the PRISM program (v4.0, GraphPad Inc.). The ligands were assayed as TFA salts and not corrected for peptide context.

male WT mice = test: Mouse feeding study, intrathecal (IT) injection; assay type: in vivo; details: 2 nmol IT
Description: This study was conducted in accordance with the guidelines set up by the Institutional Animal Care and Use Committee (IACUC) at the University of Minnesota. Male Wildtype (WT) mice (mixed 129/Sv×C57BL/6J background) derived from an in house breeding colony were used throughout this experiment as previously reported in literature.^14,23,61,63,65 Each mouse was individually housed in standard polycarbonate conventional cages provided by the University of Minnesota's Research Animal Resources (RAR). Mice were singly housed in order to adequately measure food intake of individual mice during experiments. At the beginning of this experiment, mice were age-matched at 24 weeks old. Research lab staff performed weekly cage changes. […] Mice were monitored daily to assess health.
All mouse feeding experiments were designed following a crossover, non-fasting (nocturnal) paradigm. […] Intrathecal injections were performed as previously described.^63,66-68 Mouse body weight and food weight was recorded in 2, 4, 6, 8, 24, 48 and 72 hours post-injection following a single IT injection. […]
Primary dependent variables were: (i) food intake; and (ii) body weight. Food intake and body weight was analyzed a two-factor within-subject Analysis of Variance (ANOVA) with between session variables of compound and the within-subject variable of time. […]

hMC4R-Kir7.1(M125R) = molecular target: T2, hMC4R-Kir7.1(M125R) (Homo sapiens, UniProt P32245); test: Kir7.1 thallium flux assay, HEK293 cells expressing human MC4R and Kir7.1 (M125R); assay type: cell-based; details: for fold selective for Kir7.1 signaling over cAMP antagonism / fold selective for cAMP over Kir7.1 signaling: antagonist Ki / Kir7.1 apparent potency
T2 construct: expressed in transfected cells; Kir7.1 tetracycline-induced)
Description: In this assay, the Kir7.1 (M125R) variant was used since it previously was reported to result in higher unitary conductance compared to the native channel.^39
The compound with the highest apparent potency.
HEK293 cells stably expressing the human MC4R and Kir7.1 (M125R) were grown in MEM medium with 10% FBS without antibiotics, suspended in medium plus 1 μg ml^−1 tetracycline (to induce expression of the transfected tet-sensitive Kir7.1 gene) and plated (20 μL) in 384-well poly-D-lysine coated optical bottom plates (BD Biosciences) at 20,000 cells per well. Plates were incubated overnight for 16-24 h in the cell incubator at 37° C., 5% CO2. […] Plates were incubated in the dark for 1 h at room temperature and dye solution was removed. Upon addition of 20 μL 1×HBSS buffer, a liquid handler added 20 μL of ligand solution to entire plate simultaneously (ligands were prepared by serial dilution in 1×HBSS, 20 mM HEPES, 0.1% BSA, pH 7.3). Plates were incubated in the dark for 20 min (unless otherwise indicated). After a baseline reading on a Thallos Plate-reader (Vanderbilt, Tenn.), 10 μL of a thallium solution (1×HBSS, 20 mM HEPES, 2 mM Tl, pH 7.3) was loaded and fluorescence generated by thallium influx was recorded for 10 min. The signal was normalized to an untreated control.

MC4R [2] = molecular target: T1, MC4R; test: Competitive radioligand binding, displacement of 125I-AGRP, HEK293 cells expressing hMC4R; design: expressed in transfected cells; details: for fold decreased binding affinity compared to AGRP: displacement of 125I-AGRP; for IC50: Table 10
Description: Competitive binding affinity experiments were performed on HEK-293 cells stably expressing the wildtype hMC4R. […] The assay media was carefully aspirated and cells were washed once with assay buffer. Cell were lysed with 500 μL 0.1 M NaOH and 500 μL 1% Triton X-100 for a minimum of 10 min. […] All experiments were performed with duplicate data points and in at least two independent experimental replicates. […] Concentration-response curves and IC50 values were generated and analyzed by the PRISM program (version 4.0. GraphPad Inc.) by a nonlinear regression method. The standard error of the mean (SEM) was derived from the IC50 values from at least two independent experimental replicates.

MC4R [3] = molecular target: T1, MC4R; test: AlphaScreen cAMP assay, antagonist activity (Schild, NDP-MSH) at hMC4R; assay type: cell-based; design: expressed in transfected cells; details: Example 5
Description: as §1, §2, §3

MC4R [4] = molecular target: T1, MC4R; test: Competitive radioligand binding, displacement of 125I-NDP-MSH, HEK293 cells expressing hMC4R; design: expressed in transfected cells; details: for fold decreased binding affinity compared to NDP-MSH: displacement of 125I-NDP-MSH; for IC50: Table 10
free-feeding mice = test: Mouse feeding study, intracerebroventricular (ICV) administration; assay type: in vivo
Description: Cannulation surgeries were performed to place a cannula into the lateral cerebral ventricle as previously reported.^23,67,76 Mice were anesthetized with a mixture of xylazine (5 mg/kg) and ketamine (100 mg/kg) administered intraperitoneal (IP) and placed in a stereotaxic apparatus (David Kopf Instruments) that was used to guide the cannula placement. […] After surgery, flunixin meglumine (FluMegluine, Clipper Distribution Company) and 0.5 mL of 0.9% saline (Hospira, Lake Forrest, Ill.) was administered subcutaneously to aid in recovery. Mice recovered for at least 7 days prior to cannula placement validation. Mice were housed individually after surgery and for the remainder of the experiments.
Cannula placement was validated by the feeding response after ICV administration of 2.5 μg of human (h)PYY3-36 (cat # H8585; Bachem), as described previously.^23,67,75-76 Mice received saline treatment and hPYY treatment on different days separated by a washout period of at least 3 days in a crossover design nocturnal feeding paradigm. In this paradigm, compound or saline is administered 2 h prior to lights out (t=0 h) and body weight and food are measured. Mice have free access to food and water. At 4 h post-administration, food is measured. A mouse with a validated properly placed cannula consumed at least 0.8 g more food after hPYY administration compared to saline administration at 4 h.
All ICV and IT administration experiments utilized a crossover design with free access to standard chow. Mice were housed in RAR supplied conventional mouse cages. […] Matching vehicle controls (3% v/v DMSO in saline and 20% solutol) were prepared in parallel. The day of compound administration, an aliquot of stock solution was diluted with saline to the desired experimental dose in 3 μL, in parallel with vehicle control. For ICV administration, the desired experimental dose (3 μL) or vehicle control (3 μL) was delivered 2 h before lights out (t=0 h). For IT administration, the desired experimental dose (5 μL) or vehicle control (5 μL) was delivered 2 h before lights out (t=0 h). Food intake and mouse weight was manually measured at t=0, 2, 4, 6, 8, 24, 48, and 72 h post-injection. Mice recovered 6-7 days between treatments to reestablish pretreatment body weight and feeding patterns.

mMC4R [5] = molecular target: T3, mMC4R (Mus musculus, UniProt P56450); design: expressed in transfected cells; details: previous SAR study (ref 52); cited from earlier work
mMC5R = molecular target: T4, mMC5R (Mus musculus, UniProt P41149); test: AlphaScreen cAMP assay, agonist and inverse agonist activity, HEK293 cells stably expressing mMC5R; assay type: cell-based; details: Table 6; apparent potency at inflection point
T4 construct: expressed in transfected cells

MC1R = MC1R (Mus musculus, UniProt Q01727); details: previously reported; read-out: MC1R agonist potency; cited from earlier work
mMC1R [6] = molecular target: T5, mMC1R (Mus musculus, UniProt Q01727); test: AlphaScreen cAMP assay, agonist activity, HEK293 cells stably expressing mMC1R; assay type: cell-based; details: Table 2; at 100 μM, relative to NDP-MSH
T5 construct: expressed in transfected cells

mMC4R [7] = molecular target: T3, mMC4R; test: AlphaScreen cAMP assay, agonist activity, HEK293 cells stably expressing mMC4R; assay type: cell-based; design: expressed in transfected cells; details: Table 2; at 100 μM
mMC3R [8] = molecular target: T6, mMC3R (Mus musculus, UniProt P33033); test: AlphaScreen cAMP assay, agonist activity, HEK293 cells stably expressing mMC3R; assay type: cell-based; details: Table 2; at 100 μM
T6 construct: expressed in transfected cells

mMC4R [9] = molecular target: T3, mMC4R; design: expressed in transfected cells; details: displacement of radiolabeled NDP-MSH; read-out: Ki app, mMC4R; cited from earlier work
mMC3R [10] = molecular target: T6, mMC3R; details: displacement of radiolabeled NDP-MSH; read-out: Ki app, mMC3R; cited from earlier work
mMC1R [11] = molecular target: T5, mMC1R; details: displacement of radiolabeled NDP-MSH; read-out: Ki app, mMC1R; cited from earlier work

T4 sequence (P41149 whole entry): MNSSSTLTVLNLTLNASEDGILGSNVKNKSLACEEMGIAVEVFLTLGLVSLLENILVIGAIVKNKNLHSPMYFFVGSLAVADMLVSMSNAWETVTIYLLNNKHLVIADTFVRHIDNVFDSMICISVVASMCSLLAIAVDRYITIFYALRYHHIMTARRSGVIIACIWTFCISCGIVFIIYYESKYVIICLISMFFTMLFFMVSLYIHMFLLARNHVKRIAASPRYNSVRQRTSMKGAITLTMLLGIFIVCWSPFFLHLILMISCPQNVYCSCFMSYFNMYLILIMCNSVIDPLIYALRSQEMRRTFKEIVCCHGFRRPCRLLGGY
T3 sequence (P56450 whole entry): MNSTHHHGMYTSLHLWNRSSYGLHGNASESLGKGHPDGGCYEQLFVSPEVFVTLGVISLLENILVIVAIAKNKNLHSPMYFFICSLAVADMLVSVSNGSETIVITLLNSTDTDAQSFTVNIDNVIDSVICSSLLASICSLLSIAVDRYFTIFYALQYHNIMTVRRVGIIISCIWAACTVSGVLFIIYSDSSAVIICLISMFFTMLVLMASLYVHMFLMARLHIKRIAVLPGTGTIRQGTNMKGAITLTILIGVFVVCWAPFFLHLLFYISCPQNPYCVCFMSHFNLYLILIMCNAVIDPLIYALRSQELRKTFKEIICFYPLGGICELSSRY
T2 sequence (P32245 whole entry, stated change not applied): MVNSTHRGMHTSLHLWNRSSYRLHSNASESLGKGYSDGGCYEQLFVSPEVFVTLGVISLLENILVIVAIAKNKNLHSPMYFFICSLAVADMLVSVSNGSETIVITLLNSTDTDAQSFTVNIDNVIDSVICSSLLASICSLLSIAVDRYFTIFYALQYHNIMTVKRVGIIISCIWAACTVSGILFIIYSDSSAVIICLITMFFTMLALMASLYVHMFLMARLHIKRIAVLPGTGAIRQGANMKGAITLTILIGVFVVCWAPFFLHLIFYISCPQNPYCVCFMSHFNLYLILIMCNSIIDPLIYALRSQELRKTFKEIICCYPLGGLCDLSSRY
T1 sequence (P32245 whole entry): as the sequence (P32245 whole entry, stated change not applied) above
T5 sequence (Q01727 whole entry): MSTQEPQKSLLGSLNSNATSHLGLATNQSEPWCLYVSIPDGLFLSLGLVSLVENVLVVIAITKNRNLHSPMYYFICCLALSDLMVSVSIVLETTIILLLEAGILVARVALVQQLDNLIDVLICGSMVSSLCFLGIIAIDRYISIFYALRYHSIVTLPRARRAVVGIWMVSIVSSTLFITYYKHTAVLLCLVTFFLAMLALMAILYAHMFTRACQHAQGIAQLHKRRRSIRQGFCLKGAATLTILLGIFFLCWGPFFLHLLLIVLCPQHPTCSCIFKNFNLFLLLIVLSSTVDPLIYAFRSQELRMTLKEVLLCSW
T6 sequence (P33033 whole entry): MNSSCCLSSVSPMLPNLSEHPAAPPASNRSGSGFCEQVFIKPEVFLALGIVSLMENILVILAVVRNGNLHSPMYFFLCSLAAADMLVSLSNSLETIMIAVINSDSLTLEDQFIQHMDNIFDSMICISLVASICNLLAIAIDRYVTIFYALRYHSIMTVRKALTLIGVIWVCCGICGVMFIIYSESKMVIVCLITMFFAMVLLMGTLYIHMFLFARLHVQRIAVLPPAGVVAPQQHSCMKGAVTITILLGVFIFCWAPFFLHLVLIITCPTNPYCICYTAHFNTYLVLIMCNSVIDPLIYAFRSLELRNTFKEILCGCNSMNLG
MC1R, sequence (Q01727 whole entry): as the sequence (Q01727 whole entry) above

## AGRP(83-132): hypothesized biologically active form of agouti-related protein (SSRRCVRLHESCLGQQVPCCDPCATCYCRFFNAFCYCRKLGTAMNPCSRT; UniProt O00253 83-132, looked up, fragment)
rats
  increase of 24 h food intake above saline: 77%

## c[Pro-Arg-Phe-Phe-Asn-Ala-Phe-DPro] [Peptide 1 (Example 1)]
MC4R [1]
  hMC4R Inverse Agonist, decrease from basal signal: (-30%)

## c[Pro-Arg-Phe-Phe-Asn-Ala-Nle-DPro] [Compound 7 (Example 3)]
Male WT mice
  mouse body weight vs vehicle control: treated animals weighing more than control animals
Male WT mice; single injection, listed as KAF2039-7
  cumulative food intake vs vehicle: statistically significant increase in food intake at 2 and 6 hours post-injection; also recorded: prolonged trend of increased food intake up to 72 hours post-injection

## c[Pro-Arg-Phe-Phe-Abu-Ala-Phe-DPro] [Peptide 4 (Example 1)]
hMC4R-Kir7.1(M125R)
  fold decreased thallium flux apparent potency compared to MDE3-119-10c: 5 fold
  fold selective for Kir7.1 signaling over cAMP antagonism: approximately 50 fold
MC4R [2]
  fold decreased binding affinity compared to AGRP: 16 fold
MC4R [3]
  fold decreased antagonist potency relative to MDE3-119-8c at the hMC4R: 19 fold
MC4R [1]
  hMC4R Inverse Agonist, decrease from basal signal: (-15%)
  fold decreased inverse agonist apparent potency relative to AGRP: 9 fold
MC4R [4]
  fold decreased binding affinity compared to NDP-MSH: 20 fold
free-feeding mice; 5 nmol dose
  food intake after ICV administration: observed to decrease food intake, a trend that did not achieve statistical significance
free-feeding mice; 2 and 5 nmol doses
  food intake after ICV administration: no significant food increase was observed by 8 h
mMC4R [5]
  fold decreased antagonist potency compared to the Dap substitution at the mMC4R: 25 fold

## c[Pro-Arg-Phe-Phe-Asn-Ala-Trp-DPro] [Compound 8 (Example 3)]
mMC5R
  EC50: 150 nM

## c[Pro-Arg-Phe-Phe-Asn-Ala-Cha-DPro] [Compound 10 (Example 3)]
mMC5R
  EC50: 780 nM

## c[Pro-Arg-Phe-Phe-His-Ala-Phe-DPro] [Peptide 10 (Example 1)]
MC4R [2]
  fold decreased binding affinity compared to AGRP: 4 fold
MC4R [1]
  hMC4R Inverse Agonist, decrease from basal signal: (-30%)
MC4R [4]
  fold decreased binding affinity compared to NDP-MSH: 5 fold

## c[Pro-Arg-Phe-Phe-Ser-Ala-Phe-DPro] [Peptide 5 (Example 1)]
MC4R [1]
  hMC4R Inverse Agonist, decrease from basal signal: (-25%)
  EC50: 16 ± 4 nM

## c[Pro-Arg-Phe-Phe-Ala-Ala-Phe-DPro] [Peptide 3 (Example 1)]
MC4R [1]
  hMC4R Inverse Agonist, decrease from basal signal: (-35%)

## c[Pro-Arg-Phe-Phe-Glu-Ala-Phe-DPro] [Peptide 8 (Example 1)]
MC4R [2]
  IC50: 1400 nM
  fold decreased binding affinity compared to AGRP: 110 fold
MC4R [3]
  fold decreased antagonist potency relative to MDE3-119-8c at the hMC4R: 70 fold
MC4R [1]
  hMC4R Inverse Agonist, decrease from basal signal: (-35%)
  EC50: 1100 nM
  fold decreased inverse agonist apparent potency relative to AGRP: 450 fold
MC4R [4]
  IC50: 2500 nM
  fold decreased binding affinity compared to NDP-MSH: 90 fold

## c[Pro-Arg-Phe-Phe-Asn-Ala-hPhe-DPro] [Compound 11 (Example 3)]
mMC5R
  EC50: 290 nM

## c[Pro-Arg-Phe-Phe-Dap-Ala-Phe-DPro] [Peptide 2 (Example 1)]
hMC4R-Kir7.1(M125R)
  fold decreased thallium flux apparent potency compared to MDE3-119-10c: 28 fold
  fold selective for cAMP over Kir7.1 signaling: 2 fold
MC4R [1]
  hMC4R Inverse Agonist, decrease from basal signal: (-50%)
free-feeding mice; 3 nmol dose
  food intake after ICV administration vs vehicle: significant increase in food intake at 4, 6, and 8 h
free-feeding mice; free feeding male mice, doses up to 3 nmol, listed as MDE3-119-8c
  food intake after ICV administration: dose-dependent increase in food intake was observed for the first 8 h post-injection; also recorded: did not significantly alter cumulative food intake after 24 h

## H-Tyr-c[Dap-Arg-Phe-Phe-Asn-Ala-Phe-Asp]-Tyr-NH2 (H-Y[Dap]RFFNAFDY-NH2; lactam 2-9)
MC1R
  EC50: 28100 nM

## 15 (cyclo(PRFFWAF[dP]); SMILES C[C@@H]1NC(=O)[C@H](Cc2c[nH]c3ccccc23)NC(=O)[C@H](Cc2ccccc2)NC(=O)[C@H](Cc2ccccc2)NC(=O)[C@H](CCCNC(=N)N)NC(=O)[C@@H]2CCCN2C(=O)[C@H]2CCCN2C(=O)[C@H](Cc2ccccc2)NC1=O) [Peptide 15]
mMC1R [6]
  mMC1R percent maximal stimulatory response: 80% @ 100 μM
mMC4R [7]
  mMC4R percent maximal stimulatory response: 50% @
mMC3R [8]
  mMC3R percent maximal stimulatory response: 40% @

## c[Pro-Arg-Phe-Phe-DDap-Ala-Phe-DPro] [Peptide 9 (Example 1)]
hMC4R-Kir7.1(M125R)
  fold decreased thallium flux apparent potency compared to MDE3-119-10c: 80 fold
  fold selective for cAMP over Kir7.1 signaling: 4 fold
MC4R [1]
  hMC4R Inverse Agonist, decrease from basal signal: (-30%)

## c[Pro-Arg-Phe-Phe-Asp-Ala-Phe-DPro] [Peptide 7 (Example 1)]
hMC4R-Kir7.1(M125R)
  fold decreased thallium flux apparent potency compared to MDE3-119-10c: 2 fold
  fold selective for Kir7.1 signaling over cAMP antagonism: over 500 fold
MC4R [2]
  IC50: 1300 nM
  fold decreased binding affinity compared to AGRP: 100 fold
MC4R [3]
  fold decreased antagonist potency relative to MDE3-119-8c at the hMC4R: 90 fold
MC4R [1]
  hMC4R Inverse Agonist, decrease from basal signal: (-35%)
  EC50: 2000 nM
  fold decreased inverse agonist apparent potency relative to AGRP: 830 fold
MC4R [4]
  IC50: 3600 nM
  fold decreased binding affinity compared to NDP-MSH: 130 fold

B1: mASP: recombinant mouse agouti-signaling protein (protein, UniProt Q03288 23-131, looked up)
Agouti-signaling protein: HLALEETLGDDRSLRSNSSMNSLDFSSVSIVALNKKSKKISRKEAEKRKRSSKKKASMKKVARPPPPSPCVATRDSCKPPAPACCDPCASCQCRFFGSACTCRVLNPNC
mMC4R [9]
  Ki: 54 nM
mMC3R [10]
  Ki: 190 nM
mMC1R [11]
  Ki: 2.6 nM
